According to paper PMC9082844 (Journal of Biomedical Science, 2022):
Read-outs that look alike come from different tables or passages of the source. Each block holds one molecule with its values, some of them ahead of it.

Experiments:
LNCaP cell = tested on: LNCaP cell; design: method as in PMID 24971742; conditions: cited from earlier work
RWPE-1 = assay: MTT assay, RWPE-1; assay type: cell-based; conditions: immortalized normal RWPE-1, 3 days
Protocol: (§1) Cells (3 × 10^3) were seeded in a 96-well plate 1 day before the treatment. Cell proliferation was measured by MTT colorimetric assay according to the manufacturer’s instruction (Roche, Indianapolis, IN, USA).
(§2) B H3K9me3 and H3K36me3 levels in myricetin-treated C4-2B cells for 2 days. The H3K9me3, H3K36me3, and H3 signals were detected in cell lysates by western blot analysis. M myricetin

KDM4B [1] = target: T1, KDM4B (Homo sapiens, UniProt O94953); assay: FDH-coupled demethylase assay, KDM4B; assay type: biochemical
T1 sequence (O94953 1-1096): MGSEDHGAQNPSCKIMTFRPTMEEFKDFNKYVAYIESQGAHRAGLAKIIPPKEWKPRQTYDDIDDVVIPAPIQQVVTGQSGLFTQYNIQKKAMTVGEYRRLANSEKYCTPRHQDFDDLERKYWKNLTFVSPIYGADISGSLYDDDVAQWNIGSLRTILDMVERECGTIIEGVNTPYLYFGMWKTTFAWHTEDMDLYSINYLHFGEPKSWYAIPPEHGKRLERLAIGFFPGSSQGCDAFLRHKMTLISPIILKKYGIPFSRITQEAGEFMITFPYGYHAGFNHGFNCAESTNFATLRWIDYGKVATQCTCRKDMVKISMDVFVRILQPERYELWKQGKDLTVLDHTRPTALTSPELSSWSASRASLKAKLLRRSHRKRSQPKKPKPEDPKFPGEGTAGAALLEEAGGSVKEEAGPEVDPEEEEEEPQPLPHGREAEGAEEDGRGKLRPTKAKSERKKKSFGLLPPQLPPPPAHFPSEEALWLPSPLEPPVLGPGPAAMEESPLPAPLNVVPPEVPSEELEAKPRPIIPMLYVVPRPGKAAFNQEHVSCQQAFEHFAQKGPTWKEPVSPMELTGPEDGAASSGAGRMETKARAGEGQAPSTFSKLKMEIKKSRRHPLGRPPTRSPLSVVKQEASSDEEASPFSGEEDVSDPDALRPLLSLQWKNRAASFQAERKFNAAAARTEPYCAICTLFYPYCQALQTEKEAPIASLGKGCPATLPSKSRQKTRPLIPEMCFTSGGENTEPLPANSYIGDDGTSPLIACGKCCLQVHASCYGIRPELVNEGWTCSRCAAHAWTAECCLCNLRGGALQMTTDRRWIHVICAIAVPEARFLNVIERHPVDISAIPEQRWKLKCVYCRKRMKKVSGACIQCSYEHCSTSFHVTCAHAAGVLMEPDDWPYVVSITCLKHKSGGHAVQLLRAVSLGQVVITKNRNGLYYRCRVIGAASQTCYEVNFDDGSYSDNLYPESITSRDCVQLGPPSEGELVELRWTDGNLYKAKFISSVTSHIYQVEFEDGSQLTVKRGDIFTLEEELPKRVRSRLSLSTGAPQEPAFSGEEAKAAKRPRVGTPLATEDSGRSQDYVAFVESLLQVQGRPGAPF
Protocol: All the reagents were stored at -30 °C.

CWR22Rv1 = assay: MTT assay, CWR22Rv1; assay type: cell-based; conditions: 3 days
Protocol: as §1, §2

LNCaP cells = assay: MTT assay, LNCaP; assay type: cell-based; conditions: Homo sapiens, 72 h, 3 days, read-out: IC50, cell viability
Protocol: as §1
The IC50 value of each drug was determined by treating cells with the drug (0‒160 μM) for three days. For combination evaluation, a twofold serial dilution of each drug and its combination points above and below its IC50 value was used in an array format. Combination index (CI) values were calculated by CompuSyn software. The values of the combination dose–response curve, which represents drug-effect-shift analysis, were normalized to IC50 values of each single molar concentration of drugs (IC50 eq), and the plots were generated by Graphpad Prism 7.
as §2

C4-2B = assay: MTT assay, C4-2B; assay type: cell-based; conditions: 72 h, 3 days, read-out: IC50, proliferation
KDM4B [2] = target: T1, KDM4B; assay: H3 demethylation with histones as substrate, Western blot, KDM4B; assay type: biochemical; conditions: 50 μM myricetin (legend also 100 μM inhibitor), 37 °C 30 min
C4-2B cells = assay: Histone methylation levels in treated C4-2B cells, western blot; assay type: cell-based; conditions: treated 2 days
Protocol: Total cell lysates were obtained by lysing the cell with buffer [50 mM Tris–HCl pH7.5 (Thermo Fisher Scientific, Waltham, MA, USA), 150 mM NaCl (Honeywell International, Inc., Charlotte, NC, USA), 0.5% Triton X-100 (Sigma-Aldrich), 10% glycerol (Honeywell International, Inc.), 1 mM EDTA (Affymetrix Inc.), and cock-tail protease inhibitors] for 15 min on ice, followed by 10 min of sonication cycle (30 s on, 30 s off) on ice. The level of total histone 3 and trimethylated histone H3K9 was analyzed by western blotting using anti-histone 3 (Cell Signaling, Danvers, MA, USA) and anti-H3K9me3 (Millipore, Burlington, MA, USA).
as §2

[3] = cited from earlier work
JMJD2E/KDM4E = tested on: JMJD2E/KDM4E; design: method as in PMID 24260783, PMID 21124847; conditions: in vitro; cited from earlier work
C4-2B xenografts = assay: C4-2B xenograft; assay type: in vivo, Balb/c nu/nu mice
Protocol: C4-2B cells (1 × 10^6 cells) were suspended in a culture medium and mixed with Matrigel Matrix (BD, Franklin Lakes, NJ, USA). The mixtures were implanted subcutaneously into six- to eight-week-old male Balb/c nu/nu mice. […] Tumor volumes were measured for up to 3 weeks. The tumor volume was calculated using the formula: length × width × height × 0.52. Statistical analysis was conducted as described below. The animal protocols for mice experiments were approved by National Tsing Hua University Institutional Animal Care and Use Committee (approval number: NTHU-IACUC-10478) and carried out under the institutional guidelines with animal welfare standards.
Cells were treated with different concentrations of M or PLGA-M for 24 h, followed by MTT assay. B C4-2B cells (1 × 10^6) were implanted subcutaneously in the hindlimb of nude mice. […] Tumor volumes were measured for up to 3 weeks. Tumor volume was calculated using the formula (length × width × height × 0.52). Statistical significance was evaluated using Student’s t-test. C Representative IHC images of Ki67 and CD31 analysis of xenograft tumor sections from mice treated with vehicle, PLGA-M, Enza, or Enza + PLGA-M. D The proportion of Ki67 + cell was rescored in each field (400 ×) for six random fields in each group of IHC images. CD31 positive vessels in each field (100 ×) were scored for six random fields in each group. Significance was calculated using Student’s t-test. *P < 0.05; **P < 0.01; ***P < 0.001

KDM4A = target: T2, KDM4A (Homo sapiens, UniProt O75164); assay: FDH-coupled demethylase assay, KDM4A; assay type: biochemical; conditions: pyrocatechol analogue; read-out: inhibitory effect
T2 sequence (O75164 1-1064): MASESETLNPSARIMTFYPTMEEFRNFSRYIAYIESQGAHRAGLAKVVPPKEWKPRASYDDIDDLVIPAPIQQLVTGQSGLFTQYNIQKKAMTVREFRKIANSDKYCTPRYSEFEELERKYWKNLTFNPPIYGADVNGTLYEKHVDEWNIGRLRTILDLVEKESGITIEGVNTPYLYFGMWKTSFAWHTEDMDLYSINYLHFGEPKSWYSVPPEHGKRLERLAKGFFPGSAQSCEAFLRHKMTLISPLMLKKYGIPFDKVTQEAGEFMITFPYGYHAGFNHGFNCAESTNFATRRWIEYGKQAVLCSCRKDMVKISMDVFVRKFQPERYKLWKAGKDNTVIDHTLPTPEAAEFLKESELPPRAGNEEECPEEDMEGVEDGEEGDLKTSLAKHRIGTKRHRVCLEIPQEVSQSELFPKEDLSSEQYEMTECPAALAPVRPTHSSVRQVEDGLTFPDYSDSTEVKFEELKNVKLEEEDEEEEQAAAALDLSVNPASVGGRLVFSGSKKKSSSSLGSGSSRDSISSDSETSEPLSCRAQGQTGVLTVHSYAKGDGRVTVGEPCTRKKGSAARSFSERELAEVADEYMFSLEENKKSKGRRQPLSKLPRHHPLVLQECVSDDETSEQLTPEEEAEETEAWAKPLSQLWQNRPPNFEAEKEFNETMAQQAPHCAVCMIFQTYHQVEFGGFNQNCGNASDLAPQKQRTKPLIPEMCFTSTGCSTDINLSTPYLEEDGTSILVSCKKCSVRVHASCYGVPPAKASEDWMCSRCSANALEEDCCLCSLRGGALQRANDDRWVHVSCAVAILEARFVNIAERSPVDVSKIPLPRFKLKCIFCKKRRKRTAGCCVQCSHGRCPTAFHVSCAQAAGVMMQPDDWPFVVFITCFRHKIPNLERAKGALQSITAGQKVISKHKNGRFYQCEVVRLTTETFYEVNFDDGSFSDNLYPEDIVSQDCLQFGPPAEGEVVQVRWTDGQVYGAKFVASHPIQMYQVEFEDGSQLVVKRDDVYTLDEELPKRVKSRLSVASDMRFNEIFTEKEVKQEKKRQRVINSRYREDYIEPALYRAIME

SMILES: O=[N+]([O-])c1cc([N+](=O)[O-])c(/C=C/c2ccc(Cl)c(Cl)c2)cc1/C=C/c1ccc(Cl)c(Cl)c1 [NSC636819]
- LNCaP cell proliferation (LNCaP cell): strongly inhibits

SMILES: O=c1c(O)c(-c2cc(O)c(O)c(O)c2)oc2cc(O)cc(O)c12 [Myricetin, 3,5,7-trihydroxy-2-(3,4,5-trihydroxyphenyl)-4H-chromen-4-one]
- effect on cell growth (RWPE-1): essentially no effect
- Ki (KDM4B [1]; increasing concentrations of H3K9me3 peptide, read-out: Ki, non-competitive with H3K9me3 peptide, KDM4B): 1010 nM
- Ki (KDM4B [1]; increasing concentrations of α-KG, Lineweaver–Burk, read-out: Ki, competitive with α-KG, KDM4B): 530 nM
- proliferation (CWR22Rv1): significantly reduced
- IC50 (LNCaP cells): 18500 ± 800 nM
- IC50 (C4-2B): 20600 ± 900 nM
- demethylation of H3K9me3 or H3K36me3 by KDM4B (KDM4B [2]): blocked
- H3K9me3 level vs untreated cells (C4-2B cells): higher level
- H3K36me3 signal vs untreated cells (C4-2B cells): comparable
- bioavailability through the oral route [3]: poor

SMILES: CN(C)CCCNC(=O)c1ccc(-c2cc(O)c3ncccc3c2)cc1 [ML324]
- inhibitory activity toward JMJD2E/KDM4E (JMJD2E/KDM4E): submicromolar

SMILES: CNC(=O)c1ccc(N2C(=S)N(c3ccc(C#N)c(C(F)(F)F)c3)C(=O)C2(C)C)cc1F [enzalutamide]
- tumor growth vs vehicle at day 13 (C4-2B xenografts; PLGA-M i.p. 20 mg/kg three times a week, Enza oral 12.5 mg/kg five times a week, p = 0.0002): significant impairment of tumor growth
- CD31 in xenografts (IHC) (C4-2B xenografts; vs vehicle group): significantly higher level of CD31 was detected in the vehicle group
- Ki-67 expression in xenografts (IHC) (C4-2B xenografts; vs vehicle group): significantly lower

SMILES: O=c1c(O)c(-c2ccc(O)c(O)c2)oc2cc(O)cc(O)c12 [Quercetin, 2-(3,4-dihydroxyphenyl)-3,5,7-trihydroxychromen-4-one]
- IC50 (KDM4B [1]; FDH-coupled assay): 2400 nM
- KDM4B Relative Activity (%) (KDM4B [1]; FDH-coupled assay, compound concentration not given): 5.3%

- IC50 (KDM4A): 560 nM
SMILES: O=C(O)c1ccc(O)c(O)c1 [BPRKD063S0, 3,4-dihydroxybenzoic acid]
